Experimental data published in patent publication US20070128217A1 (priority 2003, published 2007).

Assays:
[1] = tested on: antibodies in sera from SARS patients (sera 1a, 1b, 2, 6, 37, 62, London, SARS-yellow, SARS-green); format: binding, human; parameters: Binding of serum 6 to linear peptides of protein X1 of SARS-CoV Urbani / Binding of serum 37 to linear peptides of protein X1 of SARS-CoV Urbani / Binding of serum 6 to looped/cyclic peptide (PEPSCAN-ELISA) / Binding of serum 37 to looped/cyclic peptide (PEPSCAN-ELISA) / Binding of serum 37 to looped/cyclic peptides of protein X1 of SARS-CoV Urbani / Binding of serum 6 to linear peptides of protein X2 / Binding of serum 37 to linear peptides of protein X2 / Binding of serum 37 to looped/cyclic peptides of protein X2 of SARS-CoV Urbani / Binding of serum 6 to linear peptides of protein M of SARS-CoV Urbani / Binding of serum 37 to linear peptides of protein M of SARS-CoV Urbani / Binding of serum 6 to looped/cyclic peptides of protein M of SARS-CoV Urbani / Binding of serum 37 to looped/cyclic peptides of protein M of SARS-CoV Urbani / Binding of serum 6 to linear peptides of protein X3 of SARS-CoV Urbani / Binding of serum 37 to linear peptides of protein X3 of SARS-CoV Urbani / Binding of serum 37 to looped/cyclic peptides of protein X3 of SARS-CoV Urbani / Binding of serum 6 to linear peptides of protein X4 of SARS-CoV Urbani / Binding of serum 37 to linear peptides of protein X4 of SARS-CoV Urbani / Binding of serum 37 to looped/cyclic peptides of protein X4 of SARS-CoV Urbani / Binding of serum 6 to linear peptides of protein X5 of SARS-CoV Urbani / Binding of serum 37 to linear peptides of protein X5 of SARS-CoV Urbani / Binding of serum 37 to looped/cyclic peptides of protein X5 of SARS-CoV Urbani / Binding of serum 6 to linear peptides of protein N of SARS-CoV Urbani / Binding of serum 37 to linear peptides of protein N of SARS-CoV Urbani / Binding of serum 6 to linear peptide (PEPSCAN-ELISA) / Binding of serum 1a to looped/cyclic peptides of protein N of SARS-CoV Urbani / Binding of serum 1b to looped/cyclic peptides of protein N of SARS-CoV Urbani / Binding of serum 2 to looped/cyclic peptides of protein N of SARS-CoV Urbani / Binding of serum 6 to looped/cyclic peptides of protein N of SARS-CoV Urbani / Binding of serum 37 to looped/cyclic peptides of protein N of SARS-CoV Urbani / Binding of serum 62 to looped/cyclic peptides of protein N of SARS-CoV Urbani / Binding of serum London to looped/cyclic peptides of protein N of SARS-CoV Urbani / Binding of serum SARS-green to looped/cyclic peptides of protein N of SARS-CoV Urbani: unit not given here
[2] = tested on: rabbit serum obtained by immunizing a rabbit with the SARS-CoV strain Frankfurt 1; format: binding; parameters: Binding of a rabbit serum to linear peptides / Binding of a rabbit serum to looped peptides / Rabbit serum linear peptides / Rabbit serum looped peptides / Binding of a rabbit serum to linear peptides of protein N of SARS-CoV Urbani (Rabbit serum linear peptides) / Binding of a rabbit serum to looped/cyclic peptides of protein N of SARS-CoV Urbani (Rabbit serum looped peptides): unit not given here
[3] = tested on: control sera (pooled serum of ten healthy LUMC hospital workers; commercial negative donor pooled serum from the Dutch bloodbank); format: binding, human; parameters: Binding of Control serum LUMC to linear peptides / Binding of Control serum Blood-bank to linear peptides / Binding of Control serum LUMC to looped peptides / Binding of Control Serum Blood-Bank to Looped peptides / Binding of Control serum LUMC to linear peptides of the protein M of SARS-CoV Urbani / Binding of Control serum Blood-bank to linear peptides of the protein M of SARS-CoV Urbani / Binding of Control serum LUMC to looped peptides of the protein M of SARS-CoV Urbani / Binding of Control Serum Blood-Bank to Looped peptides of the protein M of SARS-CoV Urbani: unit not given here

YIIKLVFLWLLWPVT
Binding of serum 1a to linear peptides of protein M of SARS-CoV Urbani [1]: 0.8
Binding of serum 1a to looped/cyclic peptides of protein M of SARS-CoV Urbani [1]: 0.8
Binding of serum 1b to linear peptides of protein M of SARS-CoV Urbani [1]: 0.6
Binding of serum 1b to looped/cyclic peptides of protein M of SARS-CoV Urbani [1]: 0.8
Binding of serum 2 to linear peptides of protein M of SARS-CoV Urbani [1]: 0.9
Binding of serum 2 to looped/cyclic peptides of protein M of SARS-CoV Urbani [1]: 0.6
Binding of serum 6 to linear peptides of protein M of SARS-CoV Urbani [1]: 0.4
Binding of serum 6 to looped/cyclic peptides of protein M of SARS-CoV Urbani [1]: 0.8
Binding of serum 37 to linear peptides of protein M of SARS-CoV Urbani [1]: 0.7
Binding of serum 37 to looped/cyclic peptides of protein M of SARS-CoV Urbani [1]: 0.7
Binding of serum 62 to linear peptides of protein M of SARS-CoV Urbani [1]: 0.8
Binding of serum 62 to looped/cyclic peptides of protein M of SARS-CoV Urbani [1]: 0.7
Binding of serum London to linear peptides of protein M of SARS-CoV Urbani [1]: 0.3
Binding of serum London to looped/cyclic peptides of protein M of SARS-CoV Urbani [1]: 0.3
Binding of serum SARS-green to linear peptides of protein M of SARS-CoV Urbani [1]: 0.4
Binding of serum SARS-green to looped/cyclic peptides of protein M of SARS-CoV Urbani [1]: 0.4
Binding of serum SARS-yellow to linear peptides of protein M of SARS-CoV Urbani [1]: 0.1
Binding of serum SARS-yellow to looped/cyclic peptides of protein M of SARS-CoV Urbani [1]: 0.5
Rabbit serum linear peptides [2]: 0.4
Rabbit serum looped peptides [2]: 0.2
Binding of Control Serum Blood-Bank to Looped peptides of the protein M of SARS-CoV Urbani [3]: 0.8
Binding of Control serum Blood-bank to linear peptides of the protein M of SARS-CoV Urbani [3]: 0.8
Binding of Control serum LUMC to linear peptides of the protein M of SARS-CoV Urbani [3]: 0.5
Binding of Control serum LUMC to looped peptides of the protein M of SARS-CoV Urbani [3]: 0.8

YNTRGNTYSTAWLCA
Binding of serum 1a to linear peptides of protein X5 of SARS-CoV Urbani [1]: 0.8
Binding of serum 1a to looped/cyclic peptides of protein X5 of SARS-CoV Urbani [1]: 0.3
Binding of serum 1b to linear peptides of protein X5 of SARS-CoV Urbani [1]: 0.6
Binding of serum 1b to looped/cyclic peptides of protein X5 of SARS-CoV Urbani [1]: 0.2
Binding of serum 2 to linear peptides of protein X5 of SARS-CoV Urbani [1]: 0.6
Binding of serum 2 to looped/cyclic peptides of protein X5 of SARS-CoV Urbani [1]: 0.4
Binding of serum 6 to linear peptides of protein X5 of SARS-CoV Urbani [1]: 0.8
Binding of serum 6 to looped/cyclic peptides of protein X5 of SARS-CoV Urbani [1]: 0.4
Binding of serum 37 to linear peptides of protein X5 of SARS-CoV Urbani [1]: 0.7
Binding of serum 37 to looped/cyclic peptides of protein X5 of SARS-CoV Urbani [1]: 0.0
Binding of serum 62 to linear peptides of protein X5 of SARS-CoV Urbani [1]: 0.7
Binding of serum 62 to looped/cyclic peptides of protein X5 of SARS-CoV Urbani [1]: 0.2
Binding of serum London to linear peptides of protein X5 of SARS-CoV Urbani [1]: 0.8
Binding of serum London to looped/cyclic peptides of protein X5 of SARS-CoV Urbani [1]: 0.2
Binding of serum SARS-green to linear peptides of protein X5 of SARS-CoV Urbani [1]: 0.7
Binding of serum SARS-green to looped/cyclic peptides of protein X5 of SARS-CoV Urbani [1]: 0.2
Binding of serum SARS-yellow to linear peptides of protein X5 of SARS-CoV Urbani [1]: 0.4
Binding of serum SARS-yellow to looped/cyclic peptides of protein X5 of SARS-CoV Urbani [1]: 0.6
Rabbit serum linear peptides [2]: 0.7
Rabbit serum looped peptides [2]: 0.0
Binding of Control Serum Blood-Bank to Looped peptides [3]: 0.5
Binding of Control serum Blood-bank to linear peptides [3]: 0.7
Binding of Control serum LUMC to linear peptides [3]: 0.6
Binding of Control serum LUMC to looped peptides [3]: 0.5
